We go through 1 molecule from patent US20250282770A1, “BIOLUMINESCENT PROBES TO TRACK STEM CELLS IN VIVO” (THE BOARD OF TRUSTEES OF THE UNIVERSITY OF ILLINOIS, priority 2024, published 2025).

This data set can be described thus: Evaluation of acetal response to 1 M HCl. The class given is physicochemical. The note with it: 100 μM; 1 M HCl for one hour; ALDH1A1 0.4 μM; compared among 9, 10, 11. The method, then:
Evaluation of Acetal Response to 1 M HCl. To identify the most robust turn-on to be utilized for this study, compounds 9, 10, and 11 were tested for their ability to be deprotected under acidic conditions. Each acetal was dissolved in DMSO and subjected to equal-volume 1 M HCl and incubated at room temperature for 60 minutes. After this time, each solution was neutralized with 1 M NaOH and diluted to a concentration of 1 mM with PBS. In a black 96-well plate, PBS, NAD^+ (2.5 mM), ALDH1A1 (0.4 μM), and either compound 9, 10 or 11 (100 μM) were added. After 5 minutes, each well was treated with ATP-MgSO4 (45 μL, prepared by mixing 17.78 mM ATP-Mg and 35.56 mM MgSO4 in a 1:1 ratio in PBS buffer) and luciferase (5 μL, 1 mg/mL in PBS containing 10% glycerol) to initiate bioluminescence production. Light was collected immediately after mixing, and the signal enhancement was determined relative to control wells containing no probe or enzymes. The total volume of each well was 200 μL (PBS (pH 7.4) with 0.5% DMSO). All data reported as the mean±standard deviation (n=4).

In the case of `CCN(CC)c1ccc2nc(C3=N[C@@H](C(OC)OC)CS3)sc2c1` [AlDeLuc, (S)-2-(4-(dimethoxymethyl)-4,5-dihydrothiazol-2-yl)-N,N-diethylbenzo[d]thiazol-6-amine], the “acid resistance of acetal (bioluminescence emission after HCl, neutralization, ALDH1A1 and luciferase)” value is “most acid-resistant”.
